# Source: ChEMBL document CHEMBL1811857, “Targeting HIV entry through interaction with envelope glycoprotein 120 (gp120): synthesis and antiviral evaluation of 1,3,5-triazines with aromatic amino acids” (J Med Chem, 2011)
# The source made the active and inactive calls. The rule behind the calls is not given here.
# Columns and labels:
# [1] = tested on: Human immunodeficiency virus 1; assay: Antiviral activity against HIV1 3B infected in human CEM cells assessed as inhibition of virus-induced cytopathicity after 4 days; type: functional, organism-based; conditions: Human immunodeficiency virus 1, 3B, CCRF-CEM, 96 h
# [2] = tested on: Human immunodeficiency virus 2; assay: Antiviral activity against HIV2 ROD infected in human CEM cells assessed as inhibition of virus-induced cytopathicity after 4 days; type: functional, organism-based; conditions: Human immunodeficiency virus 2, ISOLATE ROD, CCRF-CEM, 96 h
# [3] = tested on: CCRF-CEM; assay: Cytotoxicity against human CEM cells after 4 days by Coulter counter analysis; type: cell-based; conditions: 96 h, read-out: EC50 (the source's name)
# [4] = tested on: Human immunodeficiency virus 1; assay: Binding affinity to HIV1 3B recombinant gp-120 at 50 uM after 5 mins by surface plasmon resonance analysis
# [5] = Binding affinity to HIV1 3B recombinant gp-120 after 5 mins using high density (10400 RU) sensor chip by surface plasmon resonance analysis; parameters: species or system Human immunodeficiency virus 1
# [6] = tested on: PBMC; assay: Induction of CD69 expression in human PBMC after 3 days by FACS analysis; type: functional, cell-based
# [7] = tested on: Human immunodeficiency virus 1; assay: Antiviral activity against HIV1 3a-L infected in human PBMC cells assessed as inhibition of virus-induced cytopathicity after 4 days; type: functional, organism-based; conditions: Human immunodeficiency virus 1, 3a-L, 96 h
# [8] = tested on: Human immunodeficiency virus 1; assay: Binding affinity to HIV1 3B recombinant gp-120 at 12.5 uM after 5 mins by surface plasmon resonance analysis
# [9] = tested on: Human immunodeficiency virus 1; assay: Binding affinity to HIV1 3B recombinant gp-120 at 12.5 uM after 5 mins by surface plasmon resonance analysis in presence of […]
# [10] = Binding affinity to HIV1 ADA recombinant gp-120 after 5 mins using low density (792 RU) sensor chip by surface plasmon resonance analysis; parameters: species or system Human immunodeficiency virus 1
# [11] = tested on: PBMC; assay: Cytotoxicity against human PBMC at 50 uM after 3 days; type: cell-based; conditions: 72 h
# [12] = tested on: PBMC; assay: Induction of HLA-DR expression in human PBMC after 3 days by FACS analysis; type: functional, cell-based
# [13] = Binding affinity to HIV1 3B recombinant gp-120 after 5 mins using low density (792 RU) sensor chip by surface plasmon resonance analysis; parameters: species or system Human immunodeficiency virus 1
# [14] = tested on: PBMC; assay: Induction of CD25 expression in human PBMC after 3 days by FACS analysis; type: functional, cell-based
# [15] = tested on: PBMC; assay: Mitogenic activity in human PBMC after 3 days; type: functional, cell-based
# [16] = Solubility of the compound at >10 uM; type: physicochemical
EC50 [1] [µM],EC50 [2] [µM],SMILES,CC50 [3] [µM],also measured
16,22,CCc1c(CNc2nc(N[C@@H](Cc3c[nH]c4ccccc34)C(=O)O)nc(N[C@@H](Cc3c[nH]c4ccccc34)C(=O)O)n2)c(CC)c(CNc2nc(N[C@@H](Cc3c[nH]c4ccccc34)C(=O)O)nc(N[C@@H](Cc3c[nH]c4ccccc34)C(=O)O)n2)c(CC)c1CNc1nc(N[C@@H](Cc2c[nH]c3ccccc23)C(=O)O)nc(N[C@@H](Cc2c[nH]c3ccccc23)C(=O)O)n1,> 250,Kd [5]: 2.61 µM; Activity [4]: Active; Activity [6]: inactive; EC50 [7]: 20 µM; Activity [8]: Active; Activity [9]: Active; Kd [10]: 2.51 µM; Activity [11]: Non-toxic; Activity [12]: inactive; Kd [13]: 1.61 µM; Activity [14]: inactive; Activity [15]: inactive
5.2,5.9,CN[C@@H]1[C@H](O[C@@H]2OC[C@@H](O)[C@H](O)[C@H]2O)[C@@H](O)[C@H](O[C@H]2c3cc(C)c(C(=O)N[C@H](C)C(=O)O)c(O)c3-c3c(cc4c(c3O)C(=O)c3cc(OC)cc(O)c3C4=O)[C@@H]2O)O[C@@H]1C [PRADIMICIN A],> 50,
22,22,CCc1c(CNc2nc(N[C@@H](Cc3ccc(O)cc3)C(=O)O)nc(N[C@@H](Cc3ccc(O)cc3)C(=O)O)n2)c(CC)c(CNc2nc(N[C@@H](Cc3ccc(O)cc3)C(=O)O)nc(N[C@@H](Cc3ccc(O)cc3)C(=O)O)n2)c(CC)c1CNc1nc(N[C@@H](Cc2ccc(O)cc2)C(=O)O)nc(N[C@@H](Cc2ccc(O)cc2)C(=O)O)n1,> 250,Kd [5]: 2.61 µM; Activity [4]: Active; Activity [6]: inactive; EC50 [7]: 20 µM; Activity [8]: Active; Activity [9]: Active; Kd [10]: 1.71 µM; Activity [11]: Non-toxic; Activity [12]: inactive; Kd [13]: 1.97 µM; Activity [14]: inactive; Activity [15]: inactive
> 10,> 10,CCc1c(CNc2nc(NCCc3c[nH]c4ccccc34)nc(N[C@@H](Cc3c[nH]c4ccccc34)C(=O)O)n2)c(CC)c(CNc2nc(NCCc3c[nH]c4ccccc34)nc(N[C@@H](Cc3c[nH]c4ccccc34)C(=O)O)n2)c(CC)c1CNc1nc(NCCc2c[nH]c3ccccc23)nc(N[C@@H](Cc2c[nH]c3ccccc23)C(=O)O)n1,> 10,Activity [8]: Active; solubility [16]: Insoluble
> 250,> 250,O=C(O)[C@H](Cc1ccc(O)cc1)Nc1nc(NCCOCCOCCNc2nc(N[C@@H](Cc3ccc(O)cc3)C(=O)O)nc(N[C@H](Cc3ccc(O)cc3)C(=O)O)n2)nc(N[C@@H](Cc2ccc(O)cc2)C(=O)O)n1,> 250,
26,24,CCc1c(CNc2nc(N[C@@H](Cc3ccc(O)cc3)C(=O)O)nc(N[C@@H](Cc3c[nH]c4ccccc34)C(=O)O)n2)c(CC)c(CNc2nc(N[C@@H](Cc3ccc(O)cc3)C(=O)O)nc(N[C@@H](Cc3c[nH]c4ccccc34)C(=O)O)n2)c(CC)c1CNc1nc(N[C@@H](Cc2ccc(O)cc2)C(=O)O)nc(N[C@@H](Cc2c[nH]c3ccccc23)C(=O)O)n1,> 250,Activity [8]: Active
≥ 250,≥ 250,O=C(O)[C@H](Cc1ccc(O)cc1)Nc1nc(N[C@@H](Cc2ccc(O)cc2)C(=O)O)nc(N2CCN(c3nc(N[C@@H](Cc4ccc(O)cc4)C(=O)O)nc(N[C@@H](Cc4ccc(O)cc4)C(=O)O)n3)CC2)n1,> 250,
≥ 250,≥ 250,O=C(O)[C@H](Cc1ccc(O)cc1)Nc1nc(NCCN(CCNc2nc(N[C@@H](Cc3ccc(O)cc3)C(=O)O)nc(N[C@H](Cc3ccc(O)cc3)C(=O)O)n2)CCNc2nc(N[C@@H](Cc3ccc(O)cc3)C(=O)O)nc(N[C@H](Cc3ccc(O)cc3)C(=O)O)n2)nc(N[C@H](Cc2ccc(O)cc2)C(=O)O)n1,> 250,
> 10,> 10,O=C(O)[C@H](Cc1ccccc1)Nc1nc(NCc2cccc(CNc3nc(N[C@@H](Cc4ccccc4)C(=O)O)nc(N[C@@H](Cc4ccccc4)C(=O)O)n3)c2)nc(N[C@@H](Cc2ccccc2)C(=O)O)n1,> 10,solubility [16]: Insoluble

# Continued, compound first:
SMILES,EC50 [1] [µM],EC50 [2] [µM],CC50 [3] [µM],also measured
O=C(O)[C@H](Cc1c[nH]c2ccccc12)Nc1nc(NCCN(CCNc2nc(N[C@@H](Cc3c[nH]c4ccccc34)C(=O)O)nc(N[C@H](Cc3c[nH]c4ccccc34)C(=O)O)n2)CCNc2nc(N[C@@H](Cc3c[nH]c4ccccc34)C(=O)O)nc(N[C@H](Cc3c[nH]c4ccccc34)C(=O)O)n2)nc(N[C@H](Cc2c[nH]c3ccccc23)C(=O)O)n1,20,65,> 250,
O=C(O)[C@H](Cc1ccccc1)Nc1nc(N[C@@H](Cc2ccccc2)C(=O)O)nc(N2CCN(c3nc(N[C@@H](Cc4ccccc4)C(=O)O)nc(N[C@@H](Cc4ccccc4)C(=O)O)n3)CC2)n1,106,121,> 250,
CN[C@@H]1[C@H](O[C@@H]2O[C@H](CO)[C@@H](O)[C@H](OS(=O)(=O)O)[C@H]2O)[C@@H](O)[C@H](O[C@H]2c3cc(C)c(C(=O)N[C@H](C)C(=O)O)c(O)c3-c3c(cc4c(c3O)C(=O)c3cc(OC)cc(O)c3C4=O)[C@@H]2O)O[C@@H]1C [PRADIMICIN S],,,> 250,
O=C(O)[C@H](Cc1ccccc1)Nc1nc(NCCN(CCNc2nc(N[C@@H](Cc3ccccc3)C(=O)O)nc(N[C@H](Cc3ccccc3)C(=O)O)n2)CCNc2nc(N[C@@H](Cc3ccccc3)C(=O)O)nc(N[C@H](Cc3ccccc3)C(=O)O)n2)nc(N[C@H](Cc2ccccc2)C(=O)O)n1,65,216,> 250,
O=C(O)[C@H](Cc1ccc(O)cc1)Nc1nc(NCc2cccc(CNc3nc(N[C@@H](Cc4ccc(O)cc4)C(=O)O)nc(N[C@@H](Cc4ccc(O)cc4)C(=O)O)n3)c2)nc(N[C@@H](Cc2ccc(O)cc2)C(=O)O)n1,148,80,> 250,Activity [4]: Active
O=C(O)C[C@H](Nc1nc(NCCN(CCNc2nc(N[C@@H](CC(=O)O)C(=O)O)nc(N[C@@H](Cc3c[nH]c4ccccc34)C(=O)O)n2)CCNc2nc(N[C@@H](Cc3c[nH]c4ccccc34)C(=O)O)nc(N[C@H](CC(=O)O)C(=O)O)n2)nc(N[C@@H](Cc2c[nH]c3ccccc23)C(=O)O)n1)C(=O)O,216,> 250,> 250,
O=C(O)[C@H](Cc1ccc(O)cc1)Nc1nc(NCc2ccccc2)nc(N[C@@H](Cc2ccc(O)cc2)C(=O)O)n1,,,,Activity [4]: inactive
O=C(O)[C@H](Cc1ccccc1)Nc1nc(NCCOCCOCCNc2nc(N[C@@H](Cc3ccccc3)C(=O)O)nc(N[C@H](Cc3ccccc3)C(=O)O)n2)nc(N[C@@H](Cc2ccccc2)C(=O)O)n1,≥ 250,≥ 250,> 250,
CCc1c(CNc2nc(N[C@@H](Cc3c[nH]c4ccccc34)C(=O)O)nc(N[C@H](Cc3c[nH]c4ccccc34)C(=O)O)n2)c(CC)c(CNc2nc(N[C@@H](Cc3c[nH]c4ccccc34)C(=O)O)nc(N[C@H](Cc3c[nH]c4ccccc34)C(=O)O)n2)c(CC)c1CNc1nc(N[C@@H](Cc2c[nH]c3ccccc23)C(=O)O)nc(N[C@H](Cc2c[nH]c3ccccc23)C(=O)O)n1,19,22,> 250,Activity [8]: Active
O=C(O)[C@H](Cc1c[nH]c2ccccc12)Nc1nc(NCCOCCOCCNc2nc(N[C@@H](Cc3c[nH]c4ccccc34)C(=O)O)nc(N[C@H](Cc3c[nH]c4ccccc34)C(=O)O)n2)nc(N[C@@H](Cc2c[nH]c3ccccc23)C(=O)O)n1,112,120,> 250,
O=C(O)[C@H](Cc1c[nH]c2ccccc12)Nc1nc(NCc2ccccc2)nc(N[C@@H](Cc2c[nH]c3ccccc23)C(=O)O)n1,,,,Activity [4]: inactive
CCc1c(CNc2nc(N[C@@H](CC(=O)O)C(=O)O)nc(N[C@@H](Cc3c[nH]c4ccccc34)C(=O)O)n2)c(CC)c(CNc2nc(N[C@@H](CC(=O)O)C(=O)O)nc(N[C@@H](Cc3c[nH]c4ccccc34)C(=O)O)n2)c(CC)c1CNc1nc(N[C@@H](CC(=O)O)C(=O)O)nc(N[C@@H](Cc2c[nH]c3ccccc23)C(=O)O)n1,18,33,> 250,Activity [8]: Active
